Test results from US12692261B2, “Substituted heterocyclic compounds and therapeutic uses thereof” (Bayer Aktiengesellschaft, priority 2020, dated 2026).
Where two headings read alike, the source gives them in different places.

Tests used:
[1] = biological target: T1, full-length human CSNK1A1 (Homo sapiens, UniProt P48729); assay: CSNK1A1 Assay 2 (ADP-Glo, 1 μM ATP, substrate biotin-Ahx-KRRRAL-pS-VASLPGL); format: biochemical; settings: Table 3, read-out: CSNK1A1 Assay 2 IC50 [mol/l] (median)
T1 construct: N-terminal Glutathion-S-Transferase (GST) and full-length human CSNK1A1; purchased Life Technologies PV4174; host or cells: baculovirus infected insect cells
How it was run: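 GST-tagged full-length human CSNK1A1 from baculovirus-infected insect cells (about 0.0375 ng/μL), preincubated 15 min at 22 °C with compound in HEPES pH 7.5 buffer, with 1 μM ATP and biotin-Ahx-KRRRAL-pS-VASLPGL substrate. ADP formed read by ADP-Glo luminescence.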

[2] = biological target: T2, wild-type Epidermal Growth Factor Receptor (EGFR) (Homo sapiens, UniProt P00533); assay: WT-EGFR Kinase Assay (TR-FRET, 2 mM ATP); format: biochemical
T2 construct: a fragment of human EGFR (amino acids R669 to A1210); made in house; host or cells: Sf9 insect cells
How it was run: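 GST-fused human EGFR fragment (R669-A1210) from Sf9 cells, typically 7.6 pg/μL, pre-incubated with compound 15 min at 22° C in Hepes pH 7.0 buffer with MgCl2, DTT and vanadate; biotinylated peptide substrate. After EDTA stop, phosphopeptide detected by TR-FRET (anti-phosphotyrosine Tb-cryptate/streptavidin-XL665), 665/620 nm emission ratio.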

[3] = EGFR Wildtyp 2 mM ATP IC50 [mol/l] (median), Table 4

T1 sequence (P48729 whole entry): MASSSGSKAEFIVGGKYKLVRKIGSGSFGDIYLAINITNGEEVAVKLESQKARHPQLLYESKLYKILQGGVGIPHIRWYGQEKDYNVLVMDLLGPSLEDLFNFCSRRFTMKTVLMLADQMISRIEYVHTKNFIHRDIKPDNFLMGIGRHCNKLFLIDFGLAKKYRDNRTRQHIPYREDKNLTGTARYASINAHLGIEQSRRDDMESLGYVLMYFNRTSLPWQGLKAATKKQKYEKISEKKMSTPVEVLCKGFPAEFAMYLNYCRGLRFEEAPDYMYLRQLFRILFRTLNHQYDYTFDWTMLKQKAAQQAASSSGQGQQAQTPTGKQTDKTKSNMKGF
T2 sequence (P00533 669-1210): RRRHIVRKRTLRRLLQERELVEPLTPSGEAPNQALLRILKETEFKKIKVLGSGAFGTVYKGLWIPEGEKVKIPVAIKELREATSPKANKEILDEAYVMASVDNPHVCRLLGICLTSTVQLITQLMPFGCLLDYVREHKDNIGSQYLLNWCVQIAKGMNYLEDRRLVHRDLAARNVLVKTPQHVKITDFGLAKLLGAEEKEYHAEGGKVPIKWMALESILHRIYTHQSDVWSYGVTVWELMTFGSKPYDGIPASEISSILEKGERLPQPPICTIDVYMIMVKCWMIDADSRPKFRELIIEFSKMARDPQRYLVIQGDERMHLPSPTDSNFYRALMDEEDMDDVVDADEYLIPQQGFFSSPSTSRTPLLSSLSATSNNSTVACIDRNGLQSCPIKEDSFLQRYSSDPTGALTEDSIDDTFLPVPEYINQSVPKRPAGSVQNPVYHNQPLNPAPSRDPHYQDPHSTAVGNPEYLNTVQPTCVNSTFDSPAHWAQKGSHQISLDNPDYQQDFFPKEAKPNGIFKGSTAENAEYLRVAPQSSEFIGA

Structure (SMILES) | IC50 [1] [nM] | IC50 [2, 3] [nM] | IC50 ([2]; read-out: EGFR Wildtyp 2 mM ATP IC50 [mol/l] (median), Table 4) [nM]
O=C(Nc1cc(-c2[nH]c3c(CC4CC4)cc(F)nc3c2-c2ccccn2)ccn1)C(CC(F)F)c1ccc(F)cc1 (racemic) [Example 46, (2RS)—N-{4-[7-(cyclopropylmethyl)-5-fluoro-3-(pyridin-2-yl)-1H-pyrrolo[3,2-b]pyridin-2-yl]pyridin-2-yl}-4,4-difluoro-2-(4-fluorophenyl)butanamide] | 23.2 | > 20000 | 
O=C(Nc1cc(-c2[nH]c3c(OCC(F)(F)F)ncnc3c2-c2ccccn2)ccn1)C(CC(F)(F)F)c1ccc(F)cc1 (single isomer, unassigned) [Example 126, (2R or S)-4,4,4-trifluoro-2-(4-fluorophenyl)-N-{4-[7-(pyridin-2-yl)-4-(2,2,2-trifluoroethoxy)-5H-pyrrolo[3,2-d]pyrimidin-6-yl]pyridin-2-yl}butanamide] | 5.94 | > 20000 | 
O=C(Nc1cc(-c2[nH]c3cncnc3c2-c2ccccn2)ccn1)C(CC(F)F)c1ccc(F)cc1 (single isomer, unassigned; (+)) [Example 15, (+)-4,4-difluoro-2-(4-fluorophenyl)-N-{4-[7-(pyridin-2-yl)-5H-pyrrolo[3,2-d]pyrimidin-6-yl]pyridin-2-yl}butanamide] | 1.32 |  | > 20000
O=C(Nc1cc(-c2[nH]c3c(CC4CC4)cc(F)nc3c2-c2ccccn2)ccn1)C(CC(F)F)c1ccc(F)cc1 (single isomer, unassigned) [Example 47, (2R or S)—N-{4-[7-(cyclopropylmethyl)-5-fluoro-3-(pyridin-2-yl)-1H-pyrrolo[3,2-b]pyridin-2-yl]pyridin-2-yl}-4,4-difluoro-2-(4-fluorophenyl)butanamide] | 31.6 | > 20000 | 
O=C(Nc1cc(-c2[nH]c3c(OC4CC4)cc(F)nc3c2-c2ccccn2)ccn1)C(CC(F)F)c1ccc(F)cc1 (racemic) [Example 42, (rac)-N-{4-[7-(cyclopropyloxy)-5-fluoro-3-(pyridin-2-yl)-1H-pyrrolo[3,2-b]pyridin-2-yl]pyridin-2-yl}-4,4-difluoro-2-(4-fluorophenyl)butanamide] | 8.22 | > 20000 | 
O=C(Nc1cc(-c2[nH]c3c(C4CCCO4)cc(F)nc3c2-c2ccccn2)ccn1)C(CC(F)F)c1ccc(F)cc1 (single isomer, unassigned) [Example 117, (2R or S)-4,4-difluoro-N-(4-{5-fluoro-7-[(2R or S)-oxolan-2-yl]-3-(pyridin-2-yl)-1H-pyrrolo[3,2-b]pyridin-2-yl}pyridin-2-yl)-2-(4-fluorophenyl)butanamide] | 9.89 | > 20000 | 
O=C(Nc1cc(-c2[nH]c3ccc(F)nc3c2-c2ccc(F)cn2)ccn1)C(CC(F)F)c1ccc(F)cc1 (single isomer, unassigned; (+)) [Example 109, (+)-4,4-difluoro-N-{4-[5-fluoro-3-(5-fluoropyridin-2-yl)-1H-pyrrolo[3,2-b]pyridin-2-yl]pyridin-2-yl}-2-(4-fluorophenyl)butanamide] | 3.14 | > 20000 | 
O=C(Nc1cc(-c2[nH]c3cccnc3c2-c2ccccn2)ccn1)C(CC(F)F)c1ccc(F)cc1 (racemic) [Example 10, 4,4-difluoro-2-(4-fluorophenyl)-N-{4-[3-(pyridin-2-yl)-1H-pyrrolo[3,2-b]pyridin-2-yl]pyridin-2-yl}butanamide] | 2.61 | > 20000 | 
O=C(Nc1cc(-c2[nH]c3ccc(F)nc3c2-c2ccccn2)ccn1)[C@H](CC(F)F)c1ccc(F)cc1 (single isomer, unassigned) [Example 3] | 9.21 | > 20000 | 
Cc1ccc2[nH]c(-c3ccnc(NC(=O)C(CC(F)F)c4ccc(F)cc4)c3)c(-c3ccccn3)c2n1 (racemic) [Example 4, 4,4-difluoro-2-(4-fluorophenyl)-N-{4-[5-methyl-3-(pyridin-2-yl)-1H-pyrrolo[3,2-b]pyridin-2-yl]pyridin-2-yl}butanamide] | 6.49 | > 20000 | 
